Measured values from patent US20250051266A1, “Novel GLV-Phenolamide: Biosynthesis and Function in Protecting Plants from Herbivore Attack” (Max-Planck-Gesellschaft zur Förderung der Wissenschaften …, priority 2021, published 2025).
“Also recorded” adds a separate entry of the source.

What was measured:
Empoasca decipiens = experiment: In vitro Empoasca non-choice (direct feeding) assay on artificial diet; assay type: in vivo; settings: physiologically relevant concentrations (CoP 7 μM, CP 100 μM, FP 10 μM) in 10% glucose solution
Experimental: FIG. 18 Mortality rates of in vitro Empoasca non-choice assays (n=4, 25 Empoasca leafhoppers per replicate) in which Empoasca were fed for 6 h with either 1 μM m/z 347.19 synthesized by using NaPPO1/NaPPO2 and CP and Z3H and diluted in 10% glucose solution or with 10% glucose as control (top). Empoasca in planta choice assays (n=8) conducted with VIGS plants of EV, PPO1, PPO2 and AT1 (bottom).
To test if CPH is responsible for Empoasca resistance, E. decipiens were fed with physiologically relevant concentrations of 1 μM (estimated from field-collected elicited leaves) of NMR-confirmed CPH in diets containing 10% glucose in vitro. […] NaAT1 expression was silenced in N. attenuata plants using VIGS, which disrupted the production of both CP and the CPH (Li et al., Proc Natl Acad Sci USA 112, E4147-4155 (2015)) (FIG. 13).
Empoasca feeding assays: The survival rate of Empoasca feeding on artificial diet (10% 5 sucrose in water) supplemented with caffeoylputrescine (CP, 100 μM), coumaroylputrescine (CoP, 7 μM), feruloylputrescine (FP, 10 μM), or the m/z 347.19 hexenyl derivative of CP (CPH, 1 μM) was recorded every 1 h overnight. The artificial feeding devices consisted of a 50-mL Falcon tube with a 7-mm hole drilled into the conical bottom through which the leafhoppers were aspi-rated into the tube and which then was covered with Parafilm punctured with needles to create ventilation holes. The large opening of the Falcon tube was covered with a double layer of Parafilm containing the liquid diet (100 μL). The artificial feeding devices were placed upside down with the liquid diet side down on a White Light Box (STRATAGENE) to provide bottom-light illu-mination.

NaPPO1 = target: T1, NaPPO1 (Nicotiana attenuata, UniProt A0A1J6JLI9); experiment: In vitro enzyme assay, substrate specificity of NaPPO1; assay type: biochemical; settings: incubated with NaPPO1 and (Z)-3-hexenal
T1 sequence (A0A1J6JLI9 1-596): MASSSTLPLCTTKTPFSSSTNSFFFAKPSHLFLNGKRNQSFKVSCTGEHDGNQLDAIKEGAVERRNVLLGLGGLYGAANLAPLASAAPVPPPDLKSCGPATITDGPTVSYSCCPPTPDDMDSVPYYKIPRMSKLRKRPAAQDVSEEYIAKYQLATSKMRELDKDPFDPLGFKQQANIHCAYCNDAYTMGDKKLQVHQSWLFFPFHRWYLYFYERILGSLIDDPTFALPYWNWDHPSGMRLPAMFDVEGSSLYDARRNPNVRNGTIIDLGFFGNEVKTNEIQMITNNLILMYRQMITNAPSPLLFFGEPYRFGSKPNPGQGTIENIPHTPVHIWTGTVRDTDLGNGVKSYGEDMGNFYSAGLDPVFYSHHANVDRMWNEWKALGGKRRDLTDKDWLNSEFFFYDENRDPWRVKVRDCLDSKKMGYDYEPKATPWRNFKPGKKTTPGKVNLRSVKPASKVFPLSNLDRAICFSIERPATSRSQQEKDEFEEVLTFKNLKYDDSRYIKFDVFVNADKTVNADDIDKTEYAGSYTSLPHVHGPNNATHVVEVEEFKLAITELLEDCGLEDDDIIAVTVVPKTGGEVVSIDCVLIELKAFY
Text: Extracted ion chromatograms (EIC) for doubly charged CP dimer (m/z 250.13) and m/z 347.19 in E. coli expressing NaPPO1 and NaPPO2 with CP and Z3H or (E)-2-hexenal. Compounds 1, 2, 3, 4 denote isomers of CP dimer; compounds 5, 6 denote isomers of m/z 347.19.
FIG. 53 Substrate specificity of NaPPO1 and NaPPO2 enzymes. Overlay of total ion chromatograms (TIC) of enzyme assays for authentic chlorogenic acid (CGA std), N-coumaroylputrescine (CoP std), (Z)-3-hexenal or (E)-2-hexenal with purified NaPPO1/NaPPO2 from E. coli. Compounds 1 and 2 denote CGA and CoP; 3 and 4 denote contamination peaks from (Z)-3-hexenal and CoP standards, respectively.
To test this hypothesis, purified NaPPO1, NaPPO2 and NaBBL2 proteins with N-terminal hexahistidine tags after expression in Escherichia coli were isolated (FIGS. 44-45). Incubation of either NaPPO1 or NaPPO2 (NaPPO1/2) with CP and (Z)-3-hexenal yielded a m/z 347.19 peak with identical MS/MS spectrum and retention time as the m/z 347.19 induced in N. attenuata leaves (FIG. 46). Additionally, by-products of doubly charged CP dimers at m/z 250.13 ([M+2H]2+, C26H36N4O62+) which are not detected in oral secretion-induced leaves of N. attenuata WT (Data 2) were also produced in vitro (FIG. 16 and FIG. 47). These doubly charged CP dimers were only produced when the quantities of the (Z)-3-hexenal substrate were lower than those of the CP substrate in vitro. […]
In vitro assays of NaPPO1, NaPPO2, and NaBBL2: NaPPO1, NaPPO2, and NaBBL2 enzyme activity assays were performed by incubating 100 μg of the purified recombinant protein in 84 mM acetate buffer (pH 4.8) containing 20 mM (E)-N-caffeoylputrescine (BOC Sciences, catalogue #: B0005-053482) and 1 M cis-3-hexenal (Sigma, catalogue #: W256102-SAMPLE-K) or trans-2-hexenal (Sigma, catalogue #: W256005-1KG-K). During incubation of the enzyme reactions at 8° C., 1 μL of the reactions buffer was directly injected and analyzed by LC-MS every h to detect products. […]

N-coumaroylputrescine [CoP]
changes in mortality rates of E. decipiens compared to glucose controls (Empoasca decipiens): no significant changes in mortality rates; also recorded: not affecting leafhopper behavior or performance
acceptance as substrate (new products) (NaPPO1): not accepted as substrates
